In patent publication US20230192661A1, “1, 4, 5, 6-TETRAHYDROPYRIMIDINE-2-AMINE DERIVATIVE” (UBE Corporation, priority 2020, published 2023) one finds IC50 data, which are given here for 9 compounds.

For one experiment, the target named is T1, αvβ1 (UniProt G3HZ55+P06756).
T1 construct: expressed in transfected cells; host or cells: CHO cells deficient in α5 gene, transfected with αv gene
Kind of experiment: αvβ1 cell adhesion inhibition test (αv-transfected CHO cells on human fibronectin). Format: cell-based. The following applies: human fibronectin coating, 1 mM MnCl2, 1 hour, read-out: IC50 (rate of inhibition of cell adhesion, αvβ1). How it is done: Test Example 1 was performed by partially modifying the method of Reed et al. (Sci Transl Med., 7 (288), 288ra79, 2015).
Human fibronectin (manufactured by Sigma-Aldrich Co. LLC, F0895) was prepared at 1.25 μg/mL with phosphate buffered saline (PBS), dispensed at 100 μL/well to a 96-well plate, and left standing overnight. The plate was washed with Hanks' balanced salt solution (HBSS), then subjected to blocking treatment with Dulbecco's modified Eagle medium (DMEM) containing 1% bovine serum-derived albumin (BSA) (FUJIFILM Wako Pure Chemical Corp., for cell culture, 017-22231), and used as a coated plate in the adhesion test.
αv-transfected cells (CHO cells deficient in α5 gene and transfected with αv gene) cultured in Ham's F-12 medium (FUJIFILM Wako Pure Chemical Corp., 087-08335) containing 10% fetal bovine serum (FBS), 1% penicillin/streptomycin/amphotericin B (manufactured by Thermo Fisher Scientific, Inc., 15240), 1 mM GlutaMAX Supplement (manufactured by Thermo Fisher Scientific, Inc., 35050), and 400 μg/mL hygromycin B (FUJIFILM Wako Pure Chemical Corp., 080-07683) were recovered and suspended in DMEM containing 1 mM MnCl2 (manufactured by Sigma-Aldrich Co. LLC, M1787) to prepare a cell suspension. A test compound dissolved in DMSO was added thereto.
The cell suspension of 1×10^6 cells/mL containing the test compound was added at 100 μL/well to the coated plate and left standing for 1 hour in a 5% CO2 incubator (37° C.). One hour later, the supernatant was removed, and the plate was washed with HBSS. The cells that adhered to each well in the plate were stained with crystal violet, and the cells were lysed, followed by absorbance measurement. Inhibition without substrate coating was defined as 100% inhibition, and inhibition when DMSO was added instead of the test compound was defined as 0% inhibition. The rate of inhibition of cell adhesion by the test compound was calculated according to the following expression.
Rate of inhibition of cell adhesion (%)=[1−{(Absorbance in the case of adding the test compound)−(Absorbance without substrate coating)}/{(Absorbance in the case of adding DMSO)−(Absorbance without substrate coating)}]×100
An IC50 value was calculated from the rate of inhibition of cell adhesion by the test compound. A: IC50<3 nM, B: 3 nM≤IC50<10 nM, C: 10 nM≤IC50<30 nM, D: 30 nM≤IC50<100 nM, or E: IC50≥100 nM.

Experiment [1] relates to Human hepatic stellate cells. Kind of experiment: Active human hepatic stellate cell dedifferentiation test (decrease in ACTA2 mRNA expression). It counts as cell-based. The following applies: 3 days differentiation then 2 days with compound, read-out: IC50 (rate of decrease in ACTA2 mRNA expression). The procedure:
Human hepatic stellate cells (manufactured by ScienCell Research Laboratories, Inc., 5300) were suspended in DMEM containing 10% FBS and […] penicillin/streptomycin/amphotericin B to prepare a cell suspension of 0.5×10^5 cells/mL, which was regarded as cells at the start of differentiation. The cells at the start of differentiation were dispensed at 1 mL/well to a 12-well plate and cultured, for differentiation, for 3 days in a 5% CO2 incubator (37° C.).
The culture solution in each well was removed, and DMEM containing 10% FBS and 1% penicillin/streptomycin/amphotericin B supplemented with a test compound dissolved in DMSO (final DMSO concentration: 0.1%) was added at 1 mL/well. The resultant was further cultured for 2 days in a 5% CO2 incubator (37° C.). In Test Example 4, the same reagents as in Test Example 1 were used unless otherwise specified.
RNA in the cultured cells was extracted using NucleoSpin® RNA (manufactured by Takara Bio Inc., U0955C), and cDNA was further synthesized from the extracted RNA using Prime Script™ RT reagent Kit with gDNA Eraser (manufactured by Takara Bio Inc., RR047A). Real time PCR was performed using the synthesized cDNA, various primers and TB Green® Premix Ex Taq™ II (manufactured by Takara Bio Inc., RR820A) and using PCR Thermal Cycler Dice Real Time (manufactured by Takara Bio Inc., System Code TP910, Model Code TP900). The primers used were actin alpha 2, smooth muscle (ACTA2) primer (manufactured by Takara Bio Inc., HA136273) and glyceraldehyde-3-phosphate dehydrogenase (GAPDH) primer (manufactured by Takara Bio Inc., HA067812).
The amplification curve of PCR was analyzed by the comparative Ct method. The expression level of ACTA2 mRNA was corrected with the expression level of GAPDH mRNA. An ACTA2 mRNA expression level when DMSO was added instead of the test compound was defined as 100%, and an ACTA2 mRNA expression level in the cells at the start of differentiation was defined as 0%. The rate of decrease in ACTA2 mRNA expression by the test compound was calculated according to the following expression.
Rate of decrease in ACTA2 mRNA expression (%)=[1−{(ACTA2 mRNA expression level in the case of adding the test compound)−(ACTA2 mRNA expression level in the cells at the start of differentiation)}/{(ACTA2 mRNA expression level in the case of adding DMSO)−(ACTA2 mRNA expression level in the cells at the start of differentiation)}]×100
An IC50 value was calculated from the rate of decrease in ACTA2 mRNA expression by the test compound. A: IC50<10 nM, B: 10 nM≤IC50<50 nM, C: 50 nM≤IC50<100 nM, or D: IC50≥100 nM.

In general, IC50 refers to the concentration that gives 50% inhibition.

A value given as a limit tells only on which side of the number the result lay.

T1 sequence (P06756 31-889 limits assumed): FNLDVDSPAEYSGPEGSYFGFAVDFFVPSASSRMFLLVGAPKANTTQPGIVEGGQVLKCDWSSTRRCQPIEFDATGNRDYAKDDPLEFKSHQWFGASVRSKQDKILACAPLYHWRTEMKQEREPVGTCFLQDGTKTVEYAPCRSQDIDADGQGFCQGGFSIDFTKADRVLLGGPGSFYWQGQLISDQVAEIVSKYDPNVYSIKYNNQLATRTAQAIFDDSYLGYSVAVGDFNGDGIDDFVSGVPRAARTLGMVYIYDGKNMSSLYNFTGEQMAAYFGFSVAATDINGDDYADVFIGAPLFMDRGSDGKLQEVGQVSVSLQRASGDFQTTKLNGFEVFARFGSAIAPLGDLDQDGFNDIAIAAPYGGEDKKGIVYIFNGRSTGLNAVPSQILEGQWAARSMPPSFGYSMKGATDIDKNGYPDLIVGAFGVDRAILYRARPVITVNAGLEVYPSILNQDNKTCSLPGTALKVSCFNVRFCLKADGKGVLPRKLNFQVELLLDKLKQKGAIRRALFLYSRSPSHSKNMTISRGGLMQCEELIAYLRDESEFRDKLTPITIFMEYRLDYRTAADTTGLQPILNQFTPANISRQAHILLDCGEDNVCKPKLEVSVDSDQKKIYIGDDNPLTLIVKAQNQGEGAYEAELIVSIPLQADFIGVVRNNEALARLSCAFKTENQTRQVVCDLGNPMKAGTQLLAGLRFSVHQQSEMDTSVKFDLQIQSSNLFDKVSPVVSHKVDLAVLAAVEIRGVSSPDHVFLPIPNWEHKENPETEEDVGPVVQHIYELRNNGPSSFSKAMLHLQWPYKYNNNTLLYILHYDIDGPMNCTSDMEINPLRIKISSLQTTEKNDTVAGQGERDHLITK
T1 sequence (P06756 891-1048 limits assumed): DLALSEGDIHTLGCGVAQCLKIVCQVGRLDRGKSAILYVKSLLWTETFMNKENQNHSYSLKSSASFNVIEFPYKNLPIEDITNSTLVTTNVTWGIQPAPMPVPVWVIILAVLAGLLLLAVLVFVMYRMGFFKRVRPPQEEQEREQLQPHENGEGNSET
T1 sequence (G3HZ55 21-798): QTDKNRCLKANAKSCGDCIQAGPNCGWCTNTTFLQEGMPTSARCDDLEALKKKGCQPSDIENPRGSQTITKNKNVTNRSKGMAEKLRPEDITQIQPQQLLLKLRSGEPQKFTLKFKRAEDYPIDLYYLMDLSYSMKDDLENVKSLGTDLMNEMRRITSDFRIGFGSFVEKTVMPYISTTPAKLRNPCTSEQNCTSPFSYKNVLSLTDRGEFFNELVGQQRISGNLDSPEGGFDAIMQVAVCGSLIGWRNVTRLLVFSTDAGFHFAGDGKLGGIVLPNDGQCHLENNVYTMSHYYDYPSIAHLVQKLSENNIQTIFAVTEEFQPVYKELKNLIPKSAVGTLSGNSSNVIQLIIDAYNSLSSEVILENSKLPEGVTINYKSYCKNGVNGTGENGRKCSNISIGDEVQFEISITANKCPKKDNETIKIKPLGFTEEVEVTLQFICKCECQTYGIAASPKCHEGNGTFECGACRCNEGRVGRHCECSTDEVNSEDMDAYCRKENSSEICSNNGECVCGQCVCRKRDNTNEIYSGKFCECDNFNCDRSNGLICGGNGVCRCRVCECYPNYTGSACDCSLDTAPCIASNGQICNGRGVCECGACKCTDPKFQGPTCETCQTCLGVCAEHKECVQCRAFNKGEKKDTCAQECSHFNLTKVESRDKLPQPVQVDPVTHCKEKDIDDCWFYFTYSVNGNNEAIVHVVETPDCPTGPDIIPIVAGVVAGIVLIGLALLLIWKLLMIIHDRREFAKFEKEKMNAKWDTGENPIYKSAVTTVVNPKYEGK

Consider `O=C(O)C[C@H](NC(=O)CNC(=O)c1cc(NC2=NCC(F)CN2)c2cn[nH]c2c1)c1cc(-n2cccn2)cc(C(F)(F)F)c1` (stereo partly drawn) [Example 8-(b), (3S)-3-(3-(1H-pyrazol-1-yl)-5-(trifluoromethyl)phenyl)-3-(2-(4-((5-fluoro-1,4,5,6-tetrahydropyrimidin-2-yl)amino)-1H-indazole-6-carboxamido)acetamido)propanoic acid], for which the half-maximal inhibitory concentration (IC50) on αvβ1 is less than 0.003 µM; in experiment [1], 0.05 to 0.1 µM.

As for `O=C(O)C[C@H](NC(=O)CNC(=O)c1cc(NC2=NCC(F)CN2)cc2[nH]ncc12)c1cc(I)cc(C(F)(F)F)c1` (stereo partly drawn) [Example 54-(b), (3S)-3-(2-(6-((5-fluoro-1,4,5,6-tetrahydropyrimidin-2-yl)amino)-1H-indazole-4-carboxamido)acetamido)-3-(3-iodo-5-(trifluoromethyl)phenyl)propanoic acid], the IC50 at αvβ1 is less than 0.003 µM; in experiment [1] it was 0.01 to 0.05 µM.

As to `O=C(O)C[C@H](NC(=O)CNC(=O)c1cc(NC2=NCC(F)CN2)c2c(Cl)n[nH]c2c1)c1cc(Cl)cc(C(F)(F)F)c1` (stereo partly drawn) [Example 49-(b), (3S)-3-(2-(3-chloro-4-((5-fluoro-1,4,5,6-tetrahydropyrimidin-2-yl)amino)-1H-indazole-6-carboxamido)acetamido)-3-(3-chloro-5-(trifluoromethyl)phenyl)propanoic acid], the IC50 was less than 0.003 µM at αvβ1 and less than 0.01 µM in experiment [1].

For `O=C(O)C[C@H](NC(=O)CNC(=O)c1cc(NC2=NCC(F)CN2)c2cn[nH]c2c1)c1cc(Cl)cc(Cl)c1` (stereo partly drawn) [Example 17-(b), (3S)-3-(3,5-dichlorophenyl)-3-(2-(4-((5-fluoro-1,4,5,6-tetrahydropyrimidin-2-yl)amino)-1H-indazole-6-carboxamido)acetamido)propanoic acid], the IC50 was less than 0.003 µM at αvβ1 and 0.01 to 0.05 µM in experiment [1].

Consider `O=C(O)C[C@H](NC(=O)CNC(=O)c1cc(NC2=NCC(F)CN2)cc2[nH]ncc12)c1ccc(F)c(C(F)(F)F)c1` (stereo partly drawn) [Example 55-(b), (3S)-3-(2-(6-((5-fluoro-1,4,5,6-tetrahydropyrimidin-2-yl)amino)-1H-indazole-4-carboxamido)acetamido)-3-(4-fluoro-3-(trifluoromethyl)phenyl)propanoic acid], for which the IC50 at αvβ1 is less than 0.003 µM; in experiment [1], less than 0.01 µM.

In the case of `Cc1ccc([C@H](CC(=O)O)NC(=O)CNC(=O)c2cc(NC3=NCC(F)CN3)c3cn[nH]c3c2)cc1C(F)(F)F` (stereo partly drawn) [Example 14-(b), (3S)-3-(2-(4-((5-fluoro-1,4,5,6-tetrahydropyrimidin-2-yl)amino)-1H-indazole-6-carboxamido)acetamido)-3-(4-methyl-3-(trifluoromethyl)phenyl)propanoic acid], the IC50 on αvβ1 was less than 0.003 µM; in experiment [1] it was less than 0.01 µM.

Consider `O=C(O)C[C@H](NC(=O)CNC(=O)c1cc(NC2=NCC(F)CN2)c2c(F)n[nH]c2c1)c1cc(Cl)cc(C(F)(F)F)c1` (stereo partly drawn) [Example 48-(b), (3S)-3-(3-chloro-5-(trifluoromethyl)phenyl)-3-(2-(3-fluoro-4-((5-fluoro-1,4,5,6-tetrahydropyrimidin-2-yl)amino)-1H-indazole-6-carboxamido)acetamido) propanoic acid], for which the IC50 on αvβ1 is 0.003 to 0.01 µM; in experiment [1], less than 0.01 µM.

As for `O=C(O)C[C@H](NC(=O)CNC(=O)c1cc(NC2=NCC(F)CN2)c2cn[nH]c2c1)c1cccc(C(F)(F)F)c1F` (stereo partly drawn) [Example 9-(b), (3S)-3-(2-(4-((5-fluoro-1,4,5,6-tetrahydropyrimidin-2-yl)amino)-1H-indazole-6-carboxamido)acetamido)-3-(2-fluoro-3-(trifluoromethyl)phenyl)propanoic acid], the 50% inhibitory concentration (IC50) lay within 0.003 to 0.01 µM at αvβ1 and 0.01 to 0.05 µM in experiment [1].

`O=C(O)C[C@H](NC(=O)CNC(=O)c1cc(NC2=NCC(F)CN2)c2cn[nH]c2c1)c1cc(Br)cc(OC(F)F)c1` (stereo partly drawn) [Example 26-(b), (3S)-3-(3-bromo-5-(difluoromethoxy)phenyl)-3-(2-(4-((5-fluoro-1,4,5,6-tetrahydropyrimidin-2-yl)amino)-1H-indazole-6-carboxamido)acetamido)propanoic acid]: the IC50 on αvβ1 is less than 0.003 µM; in experiment [1] it was less than 0.01 µM.
